Where a chain is given by its changes, count along the chain named.
Legend:
Assay in all cases: FLIPR Blue membrane potential assay, inhibition of 5-HT response
Format in all cases: cell-based
r5-HT3AR = target: T1, r5-HT3AR (Rattus norvegicus, UniProt P35563)
T1 sequence (P35563 24-483): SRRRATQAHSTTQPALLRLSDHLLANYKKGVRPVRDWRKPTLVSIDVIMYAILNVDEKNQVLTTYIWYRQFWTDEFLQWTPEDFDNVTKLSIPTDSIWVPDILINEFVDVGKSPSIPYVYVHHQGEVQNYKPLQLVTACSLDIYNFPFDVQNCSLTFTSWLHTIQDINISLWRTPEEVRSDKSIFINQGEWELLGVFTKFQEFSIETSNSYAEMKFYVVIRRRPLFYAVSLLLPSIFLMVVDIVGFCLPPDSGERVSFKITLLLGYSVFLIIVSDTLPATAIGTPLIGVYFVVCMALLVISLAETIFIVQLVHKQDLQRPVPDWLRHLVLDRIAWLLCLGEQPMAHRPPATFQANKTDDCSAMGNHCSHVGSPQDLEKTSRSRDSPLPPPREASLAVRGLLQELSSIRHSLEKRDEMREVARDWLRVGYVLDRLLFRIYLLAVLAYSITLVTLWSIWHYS

gp5-HT3AR = target: T2, gp5-HT3AR (Cavia porcellus, UniProt O70212)
T2 sequence (O70212 20-490): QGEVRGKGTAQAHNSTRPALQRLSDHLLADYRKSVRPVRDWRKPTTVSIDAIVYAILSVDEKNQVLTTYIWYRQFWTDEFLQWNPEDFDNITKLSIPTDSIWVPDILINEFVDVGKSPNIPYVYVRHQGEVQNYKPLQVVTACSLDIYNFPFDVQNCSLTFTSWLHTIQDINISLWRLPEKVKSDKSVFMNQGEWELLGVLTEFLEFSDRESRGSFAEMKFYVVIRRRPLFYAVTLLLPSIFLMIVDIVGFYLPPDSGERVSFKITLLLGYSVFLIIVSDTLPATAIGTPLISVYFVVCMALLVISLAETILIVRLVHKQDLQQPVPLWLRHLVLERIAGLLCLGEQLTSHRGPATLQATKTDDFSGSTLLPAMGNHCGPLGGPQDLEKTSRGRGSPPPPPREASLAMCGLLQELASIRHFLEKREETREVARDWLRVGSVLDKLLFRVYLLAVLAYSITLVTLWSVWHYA

h5-HT3AR [1] = target: T3, h5-HT3AR (Homo sapiens, UniProt P46098, S225T)
T3 sequence (P46098 24-478 S225T): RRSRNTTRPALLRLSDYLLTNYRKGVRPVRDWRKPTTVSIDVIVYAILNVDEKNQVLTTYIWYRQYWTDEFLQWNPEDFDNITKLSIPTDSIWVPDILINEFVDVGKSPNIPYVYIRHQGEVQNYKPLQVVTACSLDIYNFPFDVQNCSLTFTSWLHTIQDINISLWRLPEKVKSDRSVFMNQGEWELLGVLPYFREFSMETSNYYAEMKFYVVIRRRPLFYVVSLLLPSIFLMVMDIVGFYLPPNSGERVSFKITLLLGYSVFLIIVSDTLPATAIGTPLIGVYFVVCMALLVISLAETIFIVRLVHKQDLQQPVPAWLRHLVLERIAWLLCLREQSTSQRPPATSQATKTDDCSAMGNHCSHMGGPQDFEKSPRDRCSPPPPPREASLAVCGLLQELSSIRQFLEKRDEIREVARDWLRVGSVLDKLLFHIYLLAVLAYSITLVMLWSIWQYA

h5-HT3AR [2] = target: T4, h5-HT3AR (Homo sapiens, UniProt P46098, V202I)
T4 sequence (P46098 24-478 V202I): T3 sequence (P46098 24-478 S225T) with V179I, T202S

h5-HT3AR [3] = target: T5, h5-HT3AR (Homo sapiens, UniProt P46098, M223D)
T5 sequence (P46098 24-478 M223D): T3 sequence (P46098 24-478 S225T) with M200D, T202S

h5-HT3AR [4] = target: T6, h5-HT3AR (Homo sapiens, UniProt P46098, M204I)
T6 sequence (P46098 24-478 M204I): T3 sequence (P46098 24-478 S225T) with M181I, T202S

- IC50 (r5-HT3AR): 26 nM
- IC50 (gp5-HT3AR): 2350 nM
- IC50 (h5-HT3AR [1]): 58 nM
- IC50 (h5-HT3AR [2]): 37 nM
- IC50 (h5-HT3AR [3]): 375 nM
- IC50 (h5-HT3AR [4]): 73 nM
SMILES: Cc1ccc(Sc2ccccc2N2CCNCC2)c(C)c1 [vortioxetine]
